The record followed here is patent US20080305092A1, “Methods of treating autoimmune disease via CTLA-4IG” (THE REGENTS OF THE UNIVERSITY OF MICHIGAN, priority 1993, published 2008).

Series [1] deals with CD28^+ T cells. The series can be described thus: Cell cycle analysis (S+G2+M), propidium iodide flow cytometry. Format: cell-based, human. Particulars: 48 h after stimulation. The procedure: In separate experiments, the relative levels of IL-2 for each of the culture conditions above were independently confirmed using a commercially available ELISA assay (Genzyme Corp., Boston, Mass.). TNF-α/LT levels were measured using a semi-automated L929 fibroblast lytic assay as previously described by Kunkel et al., J. Biol. Chem., 263:5380-5384 (1988). Units of TNF-α/LT were defined using an internal standard for TNF-α (Genzyme Corp., Boston Mass.). […] IFN-γ was measured by radioimmunoassay using a commercially available kit (Centocor, Malvern, Pa.). Units for IFN-γ were determined from a standard curve using ^125I-labeled human IFN-γ provided in the test kit. GM-CSF was detected by stimulation of proliferation of the human GM-CSF-dependent cell line AML-193, as described by Lange et al., Blood, 70:192-199 (1987), in the presence of neutralizing monoclonal antibodies to TNF-α and LT. The ^3H-thymidine uptake induced by 10 ng/ml of purified GM-CSF (Genetics Institute, Cambridge, Mass.) was defined as 100 U. Separate aliquots of cells were recovered 48 h after stimulation and assayed for the percentage of cells in late stages of the cell cycle (S+G2+M) by staining of cells with propidium iodide and analysis by flow cytometry as previously described by Thompson et al., Nature, 314:363-366 (1985). […]
For orientation: Flow cytometry measures light scatter and fluorescence of single cells or particles in a stream.

Series [2] concerns CD28-stimulated IL-2 production of T cells. In words: CD28-stimulated IL-2 production with or without herbimycin A, bioassay. Particulars: for IL-2: cells cultured in the single agent only, 24 h.
Method: Cells. The CD28^+ subset of T cells was isolated from peripheral blood T lymphocytes by negative selection using immunoabsorption with goat anti-mouse Ig-coated magnetic particles as previously described in June, C. […] In some instances, T cells or Jurkat cells were cultured in complete media, or in complete media with 5 ng/ml PMA (Sigma Chemical Co., St. Louis, Mo.) or OKT3 beads (±5 beads/cell) before experiments.
To address the potential role of tyrosine kinases in CD28-triggered signaling, the effect of herbimycin A, an inhibitor of the src family protein tyrosine kinases (see Uehara, Y. et al., Biochem. Biophys. Res. Commun., 163:803 (1989)), on the CD28-triggered enhancement of IL-2 production was investigated. T cells were cultured overnight in the absence (depicted as open bars in FIG. 15) or presence (depicted as filled bars in FIG. 15) of herbimycin A (1 μM). […] Cell-free supernatant was collected, dialized to remove herbimycin A and serial dilutions were analyzed for IL-2 content by bioassay as described in June, J. Immunol., supra (1989).
Series [3] has as its system CD28^+ T cells. In words: Lymphokine secretion (IL-2, TNF-α/LT, IFN-γ, GM-CSF) by stimulated CD28+ T cells, with or without cyclosporine. In kind it is cell-based, human. Particulars: supernatant at 24 h; CSP 0.6 μg/ml where in label.
Series [4] concerns CD28^+ T cells. The series can be described thus: T cell proliferation (3H-thymidine) in the presence of cyclosporine or dexamethasone. In kind it is cell-based, human. The protocol:
T cells, enriched by nylon wool filtration as described by Julius, et al., Euro. […] The above combinations also included […] titrations (from 25 ng/ml to 1.6 μg/ml) of cyclosporine (CSP) (Sandoz, Hanover, N.J.) dissolved in ethanol-Tween 80 as described by Wiesinger, et al., Immunobiol., 156:454-463 (1979).
^3H-thymidine incorporation was measured on day 3 of culture and the results representative of eight independent experiments are depicted in FIG. 3. […] Table 6 below illustrates the effects of cyclosporine on CD3-induced proliferation of CD28^+ T cells cultured at approximately 5×10^4 cells/well in flat-bottomed 96-well microtiter plates (CoStar, Cambridge, Mass.) under the following conditions: immobilized Mab G19-4; or immobilized mAb G19-4 and mAb 9.30 100 ng/ml; or immobilized mAb G19-4 and PMA 1 ng/ml; or Mab 9.3 100 ng/ml and PMA 1 ng/ml. Cyclosporine was prepared as above and included in the cultures at 0, 0.2, 0.4, 0.8, 1.2 μg/ml.
^3H-thymidine incorporation was determined on day 3 of culture as above. […] CD28^+ T cells cultured in the absence of cyclosporine were given cyclosporine diluent. ^3H-thymidine incorporation of cells cultured in medium, or PMA, or monoclonal antibody 9.3 only were less than 150 cpm.

The test system of series [5] is CD28^+ T cells. In words: IL-4, IL-5, IFN and IL-2 in supernatants by ELISA, initial stimulation and restimulation.
Method: Supernatants from the cell culture were analyzed for lymphokine concentration using commercially available ELISA kits and the values expressed as pg/ml for IL-4, IL-5 and γ-IFN, or as units per ml, for IL-2. Supernatants were analyzed after 24 h of culture (Initial) or alternatively, the cells were cultured for 8 days in the above forms of stimulation, the cells were recovered, washed, and then restimulated with their original treatment, and the supernatants analyzed after a further 24 h of stimulation (Restimulation). The values represent means of duplicate cultures.
Supernatants from the cell culture were analyzed for lymphokine concentration using commercially available ELISA kits and the values expressed as pg/ml for IL-4, IL-5 and γ-IFN. Supernatants were analyzed after 24 h of culture (Initial) or, alternatively, the cells were cultured for 8 days in the above forms of stimulation, and then restimulated, and the supernatants analyzed after a further 24 h period of stimulation (Restimulation). The values represent means of duplicate cultures.
In series [6] the test system is CD28-induced tyrosine phosphorylation. The series can be described thus: Anti-phosphotyrosine immunoblot of PMA-treated T cells. Format: cell-based, human. To be noted: T cells treated overnight with PMA 5 ng/ml and herbimycin A. The protocol: Immunoblot analysis of protein tyrosine phosphorylation. Details of the immunoblot assay with anti-phosphotyrosine antibodies has been described in Hsi, E. D. et al., J. Biol. Chem., 264:10836 (1989) and June, C. H. et al., J. Immunol., 144:1591 (1990). Cells were suspended at 5−10×10^7 cells/ml in reaction media, i.e., HBSS containing 0.8% FCS and 20 Mm Hepes at 37° C. at time—3 m and stimulated at time 0 m. mAbs were used at 10 μg/ml final concentration. For crosslinking, biotinylated mAbs were incubated with cells for 5-8 m at room temperature, the cells prewarmed at time 3 min and stimulated with avidin (Sigma Chemical Co.) at a final concentration of 40 μg/ml at time 0. Stimulation was terminated by the addition of ice-cold 10× lysis buffer, yielding a final concentration of 0.5% Triton X-100. See June, J. Immunol., supra (1990).
CD28-induced tyrosine phosphorylation prevented by CD45 and by herbimycin. […] T cells were treated overnight with PMA (5 ng/ml) in the presence of the indicated concentration of herbimycin A or in control medium. […] Detergent-soluble proteins were processed as previously described.
To address the effects of phosphatases on CD28-mediated signal transduction, T cells were cultured overnight with PMA (5 ng/ml). […] Monoclonal antibodies were crosslinked with avidin at time 0. The reaction was terminated after 2 m. […]
(Immunoblotting shows a protein as a band on a membrane.)

For a further series, the system named is Daudi. In words: Cytotoxicity of activated cells against Daudi. Format: cell-based, human. The procedure:
(§1) One lytic unit is equivalent to 20% lysis of 5×10^3 target cells per 1×10^6 effector cells as discussed in Press, H. F. et al., J. Clin. Immunol. 1:51-83 (1981). Various targets, including Daudi and K562, were tested.
In 5 different subjects, PBL were compared with T cells (E^+) in their ability to kill Daudi, K562, and BSB cells 8 days after being activated with OKT3. These experiments were performed in X-Vivo 10 supplemented with 5% human serum (HS). […]
Cytotoxicity induced by soluble or immobilized OKT3. In 7 experiments, cytotoxicity mediated by T cells after activation was compared with soluble or immobilized OKT3. […] These experiments were performed with E^+ cells in RPMI 1640 supplemented with 10% fetal bovine serum (FBS). Cytotoxicity was assessed 7 to 8 days after triggering with soluble (10 ng/ml) or immobilized (2 μg/ml) OKT3.
Either soluble OKT3 10 ng/ml(s) or immobilized OKT3 (coated with 2 μg/ml)(I) were added as indicated. […]

The subject of another series is K562. The series can be described thus: Cytotoxicity of activated cells against K562. In kind it is cell-based, human. The procedure:
as §1
In 5 different subjects, PBL were compared with T cells (E^+) in their ability to kill Daudi, K562, and BSB cells 8 days after being activated with OKT3. These experiments were performed in X-Vivo 10 supplemented with 5% human serum (HS). The mean cytotoxicity in 5 normal subjects using PBL directed at Daudi, K562, and BSB were 15.0, 7.4, and 9.2 LU, respectively. In T cells from the same 5 subjects, the mean cytotoxicity directed at Daudi, K562, and BSB were 14.3, 7.7, and 9.3 LU, respectively.
(§2) Cytotoxicity as a function of in vitro time in cell culture. […] Cytotoxicity was a strong function of culture duration however, with <0.1, 24, 3.5, 0.5, 1.0 LU at 0, 8, 15, 22, and 29 days of culture. Similar results were found when Daudi was the target, with <0.01, 23, 5, 2, and 5 LU at 0, 8, 15, 22, and 29 days of culture.
Cytotoxicity induced by soluble or immobilized OKT3. In 7 experiments, cytotoxicity mediated by T cells after activation was compared with soluble or immobilized OKT3. Both methods induced cytotoxicity directed at Daudi and K562. Soluble OKT3 activated T cells mediated a mean cytotoxicity of 27 LU (SD-18) directed at Daudi and a mean cytotoxicity of 21 LU (SD-16) directed at K562. Immobilized OKT3 activated T cells mediated a mean cytotoxicity of 22 LU (SD-16) directed at Daudi and a mean cytotoxicity of 12 LU (SD-8) directed at K562. These experiments were performed with E^+ cells in RPMI 1640 supplemented with 10% fetal bovine serum (FBS). Cytotoxicity was assessed 7 to 8 days after triggering with soluble (10 ng/ml) or immobilized (2 μg/ml) OKT3.
(§3) Although the BMMNC population initially contained only 25% CD3^+ cells, proliferative and cytotoxic responses were excellent after 2 weeks of culture. […] In 4 experiments using normal bone marrow or autologous bone marrow, there was a median of 89-fold expansion of cells (range 18- to 173-fold) after 9 to 19 days of culture. Mean cytotoxicity directed at Daudi and K562 mediated by BMMNC stimulated with OKT3 was 5.5 LU (range 2-11) and 4.3 LU (range 2-8), respectively. […] Either soluble OKT3 10 ng/ml(s) or immobilized OKT3 (coated with 2 μg/ml)(I) were added as indicated.
(§4) Proliferative and cytotoxic responses from 3 patients were tested. […] Proliferation was assessed on day 3 of culture and cytotoxicity on day 7.

The test system of the next series is PBL, T cells or BMMNC. In words: Proliferation and expansion of PBL, T cells or BMMNC after OKT3 activation. In kind it is cell-based, human. To be noted: for Proliferation ^3H incorp.: day 3.
Text: as §2, §3, §4

The mark [7] stands for this setting: RESTIMULATION after 8 days, further 24 h.
Where [8] appears, read: BMMNC, 14 days after activation, 50 IU/ml IL-2.
The mark [9] stands for this setting: E+ cells, 7 to 8 days after triggering, 7 experiments, listed as Immobilized OKT3.
Setting [10] is: E+ cells, 7 to 8 days after triggering, 7 experiments, listed as Soluble OKT3.
Where [11] appears, read: PBL, 5 normal subjects, 8 days after activation.

Take `C[C@H](CCC(=O)O)C[C@H](C)C[C@H](C)C(=O)/C=C(\O)[C@H](C)C[C@H](C)C/C=C/[C@@H](C)[C@@H](O)[C@@H](C)[C@@H](O)C[C@@H]1CC[C@@](C)([C@H]2CC[C@@](C)([C@@H](C)O)O2)O1` [Ionomycin, ionomycin]: the “S + G2 + M” value in the series with CD28^+ T cells [1] is 6.6%. The IL-2 in [2] was < 10 U/ml. Moreover, in the series with CD28^+ T cells [3], the IFN-γ came out at 0 U/ml, the IL-2 is reported as <2 U/ml and the TNF-α/LT is 0 U/ml.

With `CCCCCCCCCCCCCC(=O)O[C@@H]1[C@@H](C)[C@@]2(O)[C@@H](C=C(CO)C[C@]3(O)C(=O)C(C)=C[C@@H]23)[C@@H]2C(C)(C)[C@]12OC(C)=O` [PMA, phorbol myristate acetate], the “S + G2 + M” value in the series on CD28^+ T cells [1] amounted to 5.5%. Also, the “^3HTdR” value in the series on CD28^+ T cells [4] (Dexamethasone 0 Nm) was 5,000. In addition, the “^3HTdR” value with CD28^+ T cells [4] (Dexamethasone 25 Nm) is reported as 1,400. Besides, the “^3H-thymidine incorporation” value in the series on CD28^+ T cells [4] (cells cultured with the single agent only) was “less than 150 cpm”. For the same compound, the “% INHIBIT” value with CD28^+ T cells [4] (inhibition of proliferation by dexamethasone) was 72%. For the same compound, the IL-2 in series [2] is recorded as < 10 U/ml. In addition, in the series on CD28^+ T cells [5] (INITIAL, 24 h of culture), the IFN stood at 152 pg/mL, the IL-2 entry is recorded as “.07 U/ml”, the IL-4 is <1 pg/mL and the IL-5 was <1 pg/mL. Besides, in the series with CD28^+ T cells [5] (setting [7]), the IFN is <1 pg/mL, the IL-2 is on record as 0.6 U/ml, the IL-4 was <1 pg/mL and the IL-5 was <1 pg/mL. In addition, in the series on CD28^+ T cells [3], the IFN-γ is given as 0 U/ml, the IL-2 is listed as <2 U/ml and the TNF-α/LT is 0 U/ml.

In the case of `CO[C@H]1[C@@H](OC)C[C@H](C)[C@@H](OC)C2=CC(=O)C=C(NC(=O)/C(C)=C/C=C\[C@H](OC)[C@@H](OC(N)=O)/C(C)=C/[C@@H]1C)C2=O` [herbimycin A], the “Tyrosine phosphorylation induced by anti-CD28 mAb” value in [6] is “nearly completely prevented”. Also, the “PMA plus ionomycin-stimulated IL-2 secretion” value in series [2] (herbimycin A 1 μM) is given as “resistant”.

With “OKT3: anti-CD3 mAb OKT3 (IgG2a), soluble or immobilized”, the “mean cytotoxicity directed at Daudi” value with Daudi (setting [8]) came out at 5.5 LU; with Daudi (setting [9]), 22 LU; in the series with Daudi (setting [10]), 27 LU; in the series with Daudi (setting [11]), 15.0 LU; in the series with Daudi (T cells (E+), same 5 subjects), 14.3 LU. Also, the “mean cytotoxicity directed at K562” value in the series on K562 (setting [8]) is reported as 4.3 LU; in the series on K562 (setting [9]), 12 LU; with K562 (setting [10]), 21 LU; in the series on K562 (setting [11]), 7.4 LU; in the series on K562 (T cells (E+), same 5 subjects), 7.7 LU. The “Proliferation ^3H incorp.” value in the series with PBL, T cells or BMMNC (Bone Marrow #171, AML, Relapsed) is 23,479 cpm; in the series on PBL, T cells or BMMNC (PBL P#632, non-Hodgkins lymphoma, pre-transplant), 58,670 cpm; with PBL, T cells or BMMNC (PBL P#635, Hodgkins lymphoma, pre-transplant) it was 27,758 cpm. In the series with PBL, T cells or BMMNC (normal or autologous bone marrow, 4 experiments, 9 to 19 days), the “median expansion of cells” value was 89 fold.
